≈ marks a conversion by molar mass, not a printed value.
What was measured:
[1] = Water solubility (spectrophotometric, HPLC); type: physicochemical; details: LAC-34 as free base
Experimental: (§1) Water solubility and dissociation constants were determined for the free base of LAC-34 using standard spectrophotometric, HPLC and potentiometric methods.

[2] = Dissociation constant (pKa), potentiometric; type: physicochemical; details: LAC-34 as free base
Experimental: as §1

[3] = Ternary solubility studies: PG/ethanol solutions titrated with water until cloudy; type: physicochemical
Experimental: Therefore, several solutions were made where PG would be saturated or almost saturated with LAC-34 (i.e., […]). A quantity of ethanol was added to act at the volatile solvent. Each solution was titrated with water until it became cloudy. As with other titrations with water, the LAC-34 appeared to come out of solution as a liquid (oil) rather than a solid.

[4] = Physical state of LAC-34 in solvents when tested at 4° C.; type: physicochemical
Experimental: When tested at 4° C., 20% LAC-34 in benzyl alcohol was a solution, 5% LAC-34 in propylene glycol was a gel, 5% LAC-34 in isopropyl myristate was a suspension, 5% LAC-34 in isopropyl palmitate was a solid, 5% LAC-34 in isopropyl alcohol was a suspension and cetyl alcohol was a solid (melting point=49.3° C.)

[5] = Solubility of LAC-34 in binary mixtures of solvent and water (anti-solvent); type: physicochemical
Experimental: Due to the very high solubility of LAC-34 free base in numerous volatile solvents, it was determined to be necessary to find and add an anti-solvent in order to reach saturation of the solutions of LAC-34. The efficacy of water is an anti-solvent for LAC-34 free base was investigated in the present studies.

[6] = tested on: guinea pigs; test: Dermal anesthesia after dermal application, pinprick method; type: in vivo, guinea pig; details: for Average Anesthetic Score: 2.0 ml of 5.0% solution in DMSO/water, 30 min occluded, maximal score 6
Experimental: The purpose of this study was to determine the efficacy of the free base and pharmaceutically acceptable salt forms of LAC-34 as dermal anesthetics, following dermal application of the compounds to guinea pigs. The Duration of Anesthesia is directly related to the Dermal Residence Times of the test articles.
Four groups of six male guinea pigs received a dose of 2.0 ml of a 5.0% solution of four test articles (LAC-34 base, LAC-34 mono-HCl salt, LAC-34 di-HCl salt and LAC-34 mesylate salt) that had been applied onto a two-inch square, 4-layer thick gauze pad on depilated dorsal skin of each guinea pig. Similarly, one group of guinea pigs received the vehicle, which consisted of DMSO/water and served as the control group. The gauze was occluded and the guinea pigs were wrapped for 30 min. Animals were assessed for initial pain reaction (anesthetic depth) at 15-minute intervals up to 3 hours and at 24 hours. An algesimeter, set at 10 g, was employed to assess the onset and depth of anesthesia using the pinprick method causing a twitch response or non-response. The “Average Anesthetic Score” was defined as number of probings not producing a dermal twitch response. Thus, a situation where there were no dermal twitch responses to six probings represent a maximal anesthetic effect and is denoted as an Average Anesthetic Score of 6. Duration of Anesthesia was in this study defined as the time from patch removal until the test scores have regressed to an average anesthetic score below 2.0. The Duration of Anesthesia in this type of experiments is directly related the duration of Dermal Residency for the test articles.

[7] = Screening of excipients for their capability to dissolve LAC-34 free base at room temperature; type: physicochemical; details: 22 °C, thermodynamic from solid
Experimental: (§2) HPLC analytical methodology was developed, using LAC-34 free base at room temperature (21-23° C.). A liquid's ability to dissolve LAC-34 was screened by adding a known mass of LAC-34 to a known volume/mass of liquid. Saturation solubility was measured by adding an excess of drug substance and allowing the suspension to equilibrate while stirring for 2-3 days. Four solutions of different concentrations of LAC-34 (8.1 mcg/mL to 0.98 mg/mL) plus a blank were typically tested in triplicate. Excellent linearity of the recovery was obtained over […] in LAC-34 concentrations and the relative standard deviations of peak areas for all LAC-34 solutions were less than 0.5%.
Various excipients were tested for their capability to dissolve LAC-34, free base.

[8] = biological target: T1, human NaV1.3 channels (Homo sapiens, UniProt Q9NY46); test: NaV1.3 electrophysiology (patch clamp) in HEK-293 cells; type: cell-based
T1 construct: expressed in transfected cells; host or cells: HEK-293
T1 sequence (Q9NY46 whole entry): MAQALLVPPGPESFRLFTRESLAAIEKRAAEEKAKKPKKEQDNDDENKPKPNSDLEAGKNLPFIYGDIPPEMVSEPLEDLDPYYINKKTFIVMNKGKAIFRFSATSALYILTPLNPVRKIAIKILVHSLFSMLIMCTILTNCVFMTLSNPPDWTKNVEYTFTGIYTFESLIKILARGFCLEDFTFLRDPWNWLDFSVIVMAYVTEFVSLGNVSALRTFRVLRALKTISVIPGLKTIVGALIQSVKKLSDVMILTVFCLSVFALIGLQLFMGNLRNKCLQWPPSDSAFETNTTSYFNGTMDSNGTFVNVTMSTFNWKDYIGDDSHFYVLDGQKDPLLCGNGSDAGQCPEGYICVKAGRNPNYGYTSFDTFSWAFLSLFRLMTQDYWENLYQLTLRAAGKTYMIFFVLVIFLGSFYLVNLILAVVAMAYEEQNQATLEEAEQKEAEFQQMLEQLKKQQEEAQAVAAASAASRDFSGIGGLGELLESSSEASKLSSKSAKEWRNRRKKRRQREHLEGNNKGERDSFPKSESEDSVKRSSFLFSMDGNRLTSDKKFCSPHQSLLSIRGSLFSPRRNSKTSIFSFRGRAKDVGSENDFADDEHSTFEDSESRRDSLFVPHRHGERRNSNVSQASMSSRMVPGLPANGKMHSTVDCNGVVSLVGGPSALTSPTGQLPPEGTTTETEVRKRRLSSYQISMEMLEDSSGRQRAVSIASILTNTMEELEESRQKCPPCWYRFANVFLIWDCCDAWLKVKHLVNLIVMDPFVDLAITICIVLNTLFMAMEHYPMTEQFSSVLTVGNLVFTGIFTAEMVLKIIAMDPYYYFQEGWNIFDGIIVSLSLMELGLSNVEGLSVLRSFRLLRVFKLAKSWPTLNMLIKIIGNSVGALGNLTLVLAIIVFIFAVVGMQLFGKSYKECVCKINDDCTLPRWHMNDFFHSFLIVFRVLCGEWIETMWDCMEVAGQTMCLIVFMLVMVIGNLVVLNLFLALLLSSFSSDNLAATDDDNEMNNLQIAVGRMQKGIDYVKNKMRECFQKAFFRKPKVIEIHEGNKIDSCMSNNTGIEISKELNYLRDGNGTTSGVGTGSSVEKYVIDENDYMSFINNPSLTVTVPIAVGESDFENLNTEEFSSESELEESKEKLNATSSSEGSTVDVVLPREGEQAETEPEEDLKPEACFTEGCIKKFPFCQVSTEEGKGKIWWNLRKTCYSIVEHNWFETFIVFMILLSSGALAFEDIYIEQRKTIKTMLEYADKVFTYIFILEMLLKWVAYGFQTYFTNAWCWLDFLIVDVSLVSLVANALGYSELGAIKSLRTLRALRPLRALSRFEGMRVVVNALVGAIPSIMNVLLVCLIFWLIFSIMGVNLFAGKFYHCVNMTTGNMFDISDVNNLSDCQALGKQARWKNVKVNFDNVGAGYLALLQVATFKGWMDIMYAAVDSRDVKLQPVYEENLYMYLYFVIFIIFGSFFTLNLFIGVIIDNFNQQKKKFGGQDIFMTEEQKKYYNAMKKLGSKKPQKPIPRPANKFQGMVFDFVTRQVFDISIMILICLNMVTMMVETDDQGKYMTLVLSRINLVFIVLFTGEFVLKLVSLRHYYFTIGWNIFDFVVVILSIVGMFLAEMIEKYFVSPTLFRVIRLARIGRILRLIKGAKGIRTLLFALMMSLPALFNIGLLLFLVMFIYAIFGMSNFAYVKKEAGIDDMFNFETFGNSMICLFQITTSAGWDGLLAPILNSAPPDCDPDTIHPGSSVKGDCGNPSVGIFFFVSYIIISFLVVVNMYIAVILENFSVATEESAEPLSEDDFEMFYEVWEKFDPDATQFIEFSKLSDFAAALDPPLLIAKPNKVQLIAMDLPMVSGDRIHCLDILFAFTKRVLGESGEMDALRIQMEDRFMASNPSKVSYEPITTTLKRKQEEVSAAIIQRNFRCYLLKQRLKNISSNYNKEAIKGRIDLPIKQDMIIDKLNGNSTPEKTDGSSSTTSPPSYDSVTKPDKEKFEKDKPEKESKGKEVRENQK

[9] = Saturation solubility of LAC-34 free base in selected solvents (HPLC); type: physicochemical; details: 22 °C, thermodynamic from solid
Experimental: as §2
The saturation solubility of LAC-34 was measured in capric/caprylic triglycerides (CCT), dimethylsulfoxide (DMSO), ethanol, isopropanol, isopropyl myristate (IPM), pentane, propylene glycol (PG), and water. CCT and IPM were selected for further work since they can function as emollients and oily vehicles in creams. DMSO is a solvent and a penetration enhancer. Ethanol and isopropanol are volatile solvents and rapid evaporation of a solvent like ethanol and isopropyl alcohol may be important for minimizing therapeutic onset time. Propylene glycol has multiple functions in dermal formulations, the most important of which are solubilization and penetration enhancement.
The analytical HPLC method described in Example 1 was used.
All of the solvents, with the exception of water, were able to dissolve large quantities of LAC-34. LAC-34, as the free base, was very soluble also in DMSO. Both IPM and CCT, which are semi-polar emollient oils, had also high solubilization capacity for LAC-34. Propylene glycol (PG), which has multiple actions for dermal drug delivery (see Table 1), was also able to solubilize significant quantities of LAC-34. […] After observing this phenomenon with ethanol, 0.125 g of isopropanol was added to 0.25 g of LAC-34. […] This was approximately 526 mg/mL.

[10] = tested on: batrachotoxin-sensitive Na+ channel (site 2); test: [3H]batrachotoxin binding to Na+ channels (site 2); design: species or system rat
[11] = biological target: T2, human NaV1.5 channels (Homo sapiens, UniProt Q14524); test: NaV1.5 electrophysiology (patch clamp) in HEK-293 cells; type: cell-based
T2 construct: expressed in transfected cells; host or cells: HEK-293
T2 sequence (Q14524 whole entry): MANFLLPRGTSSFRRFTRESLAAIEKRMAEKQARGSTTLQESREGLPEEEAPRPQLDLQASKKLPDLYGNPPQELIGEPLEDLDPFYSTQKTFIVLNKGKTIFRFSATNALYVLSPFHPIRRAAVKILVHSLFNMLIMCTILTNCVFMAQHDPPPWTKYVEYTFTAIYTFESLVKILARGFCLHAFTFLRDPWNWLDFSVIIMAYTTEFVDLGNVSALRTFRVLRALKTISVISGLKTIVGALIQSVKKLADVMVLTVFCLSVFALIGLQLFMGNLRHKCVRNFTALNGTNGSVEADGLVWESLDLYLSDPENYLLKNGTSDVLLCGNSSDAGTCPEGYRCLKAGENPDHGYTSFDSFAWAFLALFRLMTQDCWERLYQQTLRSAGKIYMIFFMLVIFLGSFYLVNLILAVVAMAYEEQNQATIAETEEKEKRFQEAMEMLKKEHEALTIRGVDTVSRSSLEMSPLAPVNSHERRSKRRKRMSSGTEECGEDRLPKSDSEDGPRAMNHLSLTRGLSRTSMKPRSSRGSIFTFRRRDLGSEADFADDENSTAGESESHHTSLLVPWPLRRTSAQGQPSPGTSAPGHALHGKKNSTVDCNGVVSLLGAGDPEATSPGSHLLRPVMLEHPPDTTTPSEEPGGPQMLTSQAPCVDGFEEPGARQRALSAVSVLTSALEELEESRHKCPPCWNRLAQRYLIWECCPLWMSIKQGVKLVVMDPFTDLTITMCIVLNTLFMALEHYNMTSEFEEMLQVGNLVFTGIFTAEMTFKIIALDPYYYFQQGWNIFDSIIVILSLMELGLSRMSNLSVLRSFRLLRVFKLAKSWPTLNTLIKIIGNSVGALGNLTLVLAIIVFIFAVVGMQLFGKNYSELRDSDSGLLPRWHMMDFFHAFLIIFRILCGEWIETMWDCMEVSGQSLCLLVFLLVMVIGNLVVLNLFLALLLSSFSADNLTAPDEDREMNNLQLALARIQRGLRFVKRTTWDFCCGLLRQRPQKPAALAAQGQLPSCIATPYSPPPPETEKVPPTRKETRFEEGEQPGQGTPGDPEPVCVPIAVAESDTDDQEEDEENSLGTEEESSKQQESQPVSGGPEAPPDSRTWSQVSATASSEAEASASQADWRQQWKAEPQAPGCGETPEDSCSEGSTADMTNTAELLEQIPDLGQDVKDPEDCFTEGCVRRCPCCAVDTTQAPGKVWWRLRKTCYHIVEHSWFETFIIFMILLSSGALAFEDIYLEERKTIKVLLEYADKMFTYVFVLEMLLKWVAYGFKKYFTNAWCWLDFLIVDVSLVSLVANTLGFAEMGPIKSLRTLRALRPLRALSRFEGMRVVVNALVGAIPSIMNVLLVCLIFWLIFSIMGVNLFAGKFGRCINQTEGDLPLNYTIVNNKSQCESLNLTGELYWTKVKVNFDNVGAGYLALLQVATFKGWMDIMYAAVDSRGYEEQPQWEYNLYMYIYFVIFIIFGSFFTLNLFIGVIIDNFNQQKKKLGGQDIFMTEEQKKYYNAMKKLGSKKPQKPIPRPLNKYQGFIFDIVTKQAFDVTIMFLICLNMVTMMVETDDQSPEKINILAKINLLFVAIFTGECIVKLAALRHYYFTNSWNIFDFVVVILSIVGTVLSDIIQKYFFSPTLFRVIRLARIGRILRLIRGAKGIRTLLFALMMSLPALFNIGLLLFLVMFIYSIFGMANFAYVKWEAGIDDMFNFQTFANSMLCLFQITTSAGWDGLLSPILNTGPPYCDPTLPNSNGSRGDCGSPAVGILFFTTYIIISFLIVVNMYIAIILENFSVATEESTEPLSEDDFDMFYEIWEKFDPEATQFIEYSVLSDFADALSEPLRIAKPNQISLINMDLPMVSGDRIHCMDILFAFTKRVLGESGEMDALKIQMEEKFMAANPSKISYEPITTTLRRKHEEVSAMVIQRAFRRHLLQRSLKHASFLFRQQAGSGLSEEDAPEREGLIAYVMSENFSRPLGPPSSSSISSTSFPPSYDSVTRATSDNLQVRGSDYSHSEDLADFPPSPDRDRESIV

Question: For `CCCCNc1ccc(C(=O)OCCN(C)C)cc1` [Tetracaine, reference compound], which solubility [1] is on record?
Answer: 0.356 mg/mL (≈ 1.35 mM)

Question: And the pKa [2]?
Answer: 8.51 ± 0.12

Question: With `c1ccc(N(CCC2CCCCN2)C2Cc3ccccc3C2)cc1` (racemic) [LAC-34, 2-[2-(N-Phenyl-N-2-indanyl)aminoethyl]piperidine] as the molecule, how does the “Saturation Concentration of LAC-34” value ([3]; 0.150 g LAC-34, 1.0 g PG, 0.5 g ethanol, 0.317 g water titrated) read?
Answer: 7.6 % w/w

Question: What about the “Saturation Concentration of LAC-34” value ([3]; 0.150 g LAC-34, 1.0 g PG, 1.0 g ethanol, 0.601 g water titrated) of the same molecule?
Answer: 5.4 % w/w

Question: What about the “Saturation Concentration of LAC-34” value ([3]; 0.200 g LAC-34, 1.0 g PG, 3.0 g ethanol, 1.880 g water titrated) of the same molecule?
Answer: 3.3 % w/w

Question: What about the solubility [1] of the same molecule?
Answer: 0.005 mg/mL (≈ 0.0156 mM)

Question: And the “Physical state at 4° C.” value ([4]; 5% LAC-34 in isopropyl alcohol)?
Answer: suspension

Question: And the “Physical state at 4° C.” value ([4]; 5% LAC-34 in isopropyl myristate)?
Answer: suspension

Question: And the “Physical state at 4° C.” value ([4]; 5% LAC-34 in isopropyl palmitate)?
Answer: solid

Question: What about the “Physical state at 4° C.” value ([4]; 5% LAC-34 in propylene glycol) of the same molecule?
Answer: gel

Question: And the “Physical state at 4° C.” value ([4]; 20% LAC-34 in benzyl alcohol)?
Answer: solution

Question: What about the solubility ([5]; DMSO with 5% water, organic solvent or mixture, DMSO, 5% water, previous tests) of the same molecule?
Answer: ≥ 100 mg/mL

Question: What about the solubility ([5]; DMSO with 50% water, aqueous with cosolvent or surfactant or cyclodextrin, DMSO, 50% water, read-out: Solubility of LAC-34 in mixture of solvent and water) of the same molecule?
Answer: 1.7 mg/mL (≈ 5.3 mM)

Question: What about the solubility ([5]; DMSO with 90% water, aqueous with cosolvent or surfactant or cyclodextrin, DMSO, 90% water, read-out: Solubility of LAC-34 in mixture of solvent and water) of the same molecule?
Answer: 0.45 mg/mL (≈ 1.4 mM)

Question: What about the solubility ([5]; DMSO, 0% water, organic solvent or mixture) of the same molecule?
Answer: 215 mg/mL (≈ 671 mM)

Question: What about the solubility ([5]; ethanol with 15% water, organic solvent or mixture, kinetic from dmso stock, ethanol, 15% water, titrated from an ethanol/LAC-34 solution with water) of the same molecule?
Answer: 63 mg/mL (≈ 197 mM)

Question: And the solubility ([5]; ethanol with 20% water, organic solvent or mixture, kinetic from dmso stock, ethanol, 20% water, titrated from an ethanol/LAC-34 solution with water)?
Answer: 33 mg/mL (≈ 103 mM)

Question: What about the solubility ([5]; ethanol with 30% water, organic solvent or mixture, kinetic from dmso stock, ethanol, 30% water, titrated from an ethanol/LAC-34 solution with water) of the same molecule?
Answer: 7 mg/mL (≈ 21.8 mM)

Question: And the solubility ([5]; ethanol, 0% water, organic solvent or mixture)?
Answer: > 2000 mg/mL

Question: And the solubility ([5]; propylene glycol with 1% water, organic solvent or mixture, PG, 1% water)?
Answer: 139 mg/mL (≈ 434 mM)

Question: What about the solubility ([5]; propylene glycol with 2.5% water, organic solvent or mixture, PG, 2.5% water) of the same molecule?
Answer: 104 mg/mL (≈ 325 mM)

Question: And the solubility ([5]; propylene glycol with 5% water, organic solvent or mixture, PG, 5% water)?
Answer: 63 mg/mL (≈ 197 mM)

Question: And the solubility ([5]; propylene glycol with 10% water, organic solvent or mixture, PG, 10% water)?
Answer: 29 mg/mL (≈ 90.5 mM)

Question: What about the solubility ([5]; propylene glycol with 20% water, organic solvent or mixture, PG, 20% water) of the same molecule?
Answer: 8.7 mg/mL (≈ 27.1 mM)

Question: What about the solubility ([5]; propylene glycol with 50% water, aqueous with cosolvent or surfactant or cyclodextrin, PG, 50% water, read-out: Solubility of LAC-34 in mixture of solvent and water) of the same molecule?
Answer: 0.37 mg/mL (≈ 1.15 mM)

Question: What about the solubility ([5]; propylene glycol with 75% water, aqueous with cosolvent or surfactant or cyclodextrin, PG, 75% water, read-out: Solubility of LAC-34 in mixture of solvent and water) of the same molecule?
Answer: 0.075 mg/mL (≈ 0.234 mM)

Question: What about the solubility ([5]; propylene glycol, organic solvent or mixture, PG, 0% water) of the same molecule?
Answer: 149 mg/mL (≈ 465 mM)

Question: What about the “Average Anesthetic Score” value ([6]; 15 min after patch removal) of the same molecule?
Answer: 4.8

Question: And the “Average Anesthetic Score” value ([6]; 30 min after patch removal)?
Answer: 4.8

Question: What about the “Average Anesthetic Score” value ([6]; 60 min after patch removal) of the same molecule?
Answer: 4.4

Question: What about the “Average Anesthetic Score” value ([6]; 90 min after patch removal) of the same molecule?
Answer: 3.3

Question: And the “Average Anesthetic Score” value ([6]; 180 min after patch removal)?
Answer: 2.2

Question: And the “Maximal Depth of Anesthesia” value ([6]; highest Average Anesthetic Score after patch removal, 5.0% solution)?
Answer: 4.8

Question: And the “Duration of Anesthesia” value ([6]; time from patch removal until average anesthetic score below 2.0, 5.0% solution)?
Answer: 180 min

Question: What about the solubility ([7]; oil or lipid, in isopropyl myristate) of the same molecule?
Answer: > 78 mg/mL

Question: What about the solubility ([7]; oil or lipid, in isopropyl palmitate) of the same molecule?
Answer: 50 to 100 mg/mL (≈ 156 to 312 mM)

Question: What about the solubility ([7]; oil or lipid, in mineral oil) of the same molecule?
Answer: < 50 mg/mL

Question: What about the solubility ([7]; organic solvent or mixture, in benzyl alcohol) of the same molecule?
Answer: > 100 mg/mL

Question: What about the solubility ([7]; organic solvent or mixture, in dibutyl adipate) of the same molecule?
Answer: > 79 mg/mL

Question: And the solubility ([7]; organic solvent or mixture, in ethanol)?
Answer: > 86 mg/mL

Question: And the solubility ([7]; organic solvent or mixture, in hexylene glycol)?
Answer: > 75 mg/mL

Question: And the solubility ([7]; organic solvent or mixture, in isopropyl alcohol)?
Answer: > 79 mg/mL

Question: And the solubility ([7]; organic solvent or mixture, in propylene carbonate)?
Answer: > 78 mg/mL

Question: What about the solubility ([7]; organic solvent or mixture, in propylene glycol) of the same molecule?
Answer: > 76 mg/mL

Question: What about the IC50 ([8]; HEK-293 cells, patch clamp) of the same molecule?
Answer: 4000 nM

Question: And the “Potency relative to lidocaine, NaV1.3 channels” value ([8]; calculated)?
Answer: more than 200 times

Question: And the pKa [2]?
Answer: 8.09 ± 0.23

Question: And the solubility ([9]; capric/caprylic triglycerides (CCT), oil or lipid, in capric/caprylic triglycerides (CCT))?
Answer: 195 mg/mL (≈ 608 mM)

Question: And the solubility ([9]; dimethylsulfoxide (DMSO), organic solvent or mixture, in dimethylsulfoxide (DMSO))?
Answer: 215 mg/mL (≈ 671 mM)

Question: What about the solubility ([9]; ethanol, organic solvent or mixture, in ethanol (never saturated)) of the same molecule?
Answer: > 2000 mg/mL

Question: And the solubility ([9]; isopropyl myristate (IPM), oil or lipid, in isopropyl myristate (IPM))?
Answer: 184 mg/mL (≈ 574 mM)

Question: And the solubility ([9]; pentane, organic solvent or mixture, in pentane, value uncertain, pentane evaporates rapidly)?
Answer: 150 mg/mL (≈ 468 mM)

Question: What about the solubility ([9]; propylene glycol (PG), organic solvent or mixture, in propylene glycol (PG)) of the same molecule?
Answer: 149 mg/mL (≈ 465 mM)

Question: And the solubility ([9]; water, in water)?
Answer: 0.005 mg/mL (≈ 0.0156 mM)

Question: And the “Potency relative to lidocaine, batrachotoxin-sensitive Na-channels” value ([10]; calculated from IC50 values)?
Answer: approximately 210 times

Question: And the IC50 ([10]; rat cerebral cortex, 10 nM ligand, 60 min/22° C., read-out: IC50, inhibition of [3H]batrachotoxin specific binding)?
Answer: 247 nM

Question: What about the IC50 [11] of the same molecule?
Answer: 600 nM

Question: What about the “Potency relative to lidocaine, NaV1.5 channels” value ([11]; calculated) of the same molecule?
Answer: about 500 times

Question: For `CCN(CC)CC(=O)Nc1c(C)cccc1C` [Lidocaine, reference compound], which inhibition at 2000 µM ([8]; HEK293, read-out: inhibition of NaV1.3 channels) is on record?
Answer: 70%
